Laboratory results from patent US20110250135A1, “Piperazine Derivatives for Binding and Imaging Amyloid Plaques and Their Use” (Bayer Schering Pharma Aktiengesellschaft, priority 2008, published 2011).

What was measured:
[1] = target: T1, Aβ plaques (Homo sapiens, UniProt P05067); test: Autoradiographical analysis of binding to cryosections from cortex of AD patients and controls; details: F-18 labeled compound; Alzheimer's disease patients (AD) vs controls without Aβ plaques
T1 construct: controls without Aβ plaques; from tissue; host or cells: frontal lobe / cortex sections (frozen and paraffin) from AD patients, FTD patients and age-matched controls
T1 sequence (P05067 672-713 limits assumed): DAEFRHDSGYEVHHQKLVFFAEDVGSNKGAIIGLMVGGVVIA
Text: Fresh frozen as well as paraffin embedded sections of the frontal lobe from Alzheimer's dementia patients, frontotemporal dementia patients and age matched controls were used for the study. Frozen sections, sliced at 18 μm thickness on a cryostate (Leica, Germany) and paraffin sections, sliced on a sliding microtom (Leica) at a thickness of 6 μm, were mounted onto glass slides (Superfrost Plus, Fa.Menzel, Braunschweig Germany). Frozen sections were allowed to adhere to the slides for several nights at −20° C. The paraffin sections were deparaffinized using routine histological methods. For binding studies sections were incubated with the F-18 labeled test compound at 10 Bq/μl diluted in 25 mM Hepes buffer, pH 7.4, 0.1% (BSA) (200-300 μl/slide) for 1.5 hour at room temperature in a humidified chamber. For blocking experiments a 1000-fold access of the unlabeled test substance was added to the incubation mixture. After hybridization, sections were washed four times with Hepes buffer, 0.1% BSA (or alternatively two times with 40% ethanol) and finally dipped two times into dest. water for 10 sec. The air-dried sections were exposed to imaging plates and signals were detected by a phosphoimager device (Fuji BAS5000).

[2] = Biodistribution: organ distribution of F-18 signal in mice; type: in vivo, male NMRI mice; details: for Organ distribution of F-18 signal, intestine: intestine (with content); for Organ distribution of F-18 signal, stomach: stomach (without content)
Method: Biodistribution and excretion studies were performed in male NMRI mice (body weight app. 30g; 3 animals per time point). The animals were kept under normal laboratory conditions at a temperature of 22±2° C. and a dark/light rhythm of 12 hours. Food and water were provided ad libitium. During an acclimation period of at least 3 days before the beginning of the study animals were clinically examined to ascertain the absence of abnormal clinical signs. At 2, 5, 30, 60, 240 min post intravenous injection via the tail vein of ca. 150 kBq in 100 μl of the test compound, urine and feces were quantitatively collected. At the same time points, animals were sacrificed by decapitation and under isoflurane anaesthesia and the following organs and tissues were removed for the determination of radioactivity using a gamma-counter: spleen, liver, kidney, lung, femur, heart, brain, fat, thyroid, muscle, skin, blood, tail, stomach (without content), testicle, intestine (with content), pancreas, adrenals, and the remaining body. For analysis the decay corrected percentage of the injected dose per tissue weight (% ID/g±standard deviation) was calculated.

**Q.** Which results are given for `O=C(NCC(=O)N1CCN(c2ccc(OCc3ccccc3)cc2)CC1)c1ccnc([18F])c1` [Example 11c, N-{2-[4-(4-Benzyloxy-phenyl)-piperazin-1-yl]-2-oxoethyl}-2-[F-18]-fluoro-isonicotinamide]?
**A.** autoradiographical analysis of binding to cryosections from cortex [1]: Specific binding in plaque-rich regions of AD samples; Organ distribution of F-18 signal, adrenals ([2]; 2 min post i.v. injection): 9.24 % ID/g; Organ distribution of F-18 signal, adrenals ([2]; 5 min post i.v. injection): 5.60 % ID/g; Organ distribution of F-18 signal, adrenals ([2]; 30 min post i.v. injection): 2.41 % ID/g; Organ distribution of F-18 signal, adrenals ([2]; 60 min post i.v. injection): 2.45 % ID/g; Organ distribution of F-18 signal, adrenals ([2]; 240 min post i.v. injection): 0.30 % ID/g; Organ distribution of F-18 signal, blood ([2]; 2 min post i.v. injection): 1.70 % ID/g; Organ distribution of F-18 signal, blood ([2]; 5 min post i.v. injection): 1.78 % ID/g; Organ distribution of F-18 signal, blood ([2]; 30 min post i.v. injection): 1.13 % ID/g; Organ distribution of F-18 signal, blood ([2]; 60 min post i.v. injection): 0.49 % ID/g; Organ distribution of F-18 signal, blood ([2]; 240 min post i.v. injection): 0.12 % ID/g; Organ distribution of F-18 signal, brain ([2]; 2 min post i.v. injection): 5.54 % ID/g; Organ distribution of F-18 signal, brain ([2]; 5 min post i.v. injection): 4.73 % ID/g; Organ distribution of F-18 signal, brain ([2]; 30 min post i.v. injection): 1.00 % ID/g; Organ distribution of F-18 signal, brain ([2]; 60 min post i.v. injection): 0.34 % ID/g; Organ distribution of F-18 signal, brain ([2]; 240 min post i.v. injection): 0.05 % ID/g; Organ distribution of F-18 signal, fat ([2]; 2 min post i.v. injection): 1.52 % ID/g; Organ distribution of F-18 signal, fat ([2]; 5 min post i.v. injection): 1.84 % ID/g; Organ distribution of F-18 signal, fat ([2]; 30 min post i.v. injection): 1.94 % ID/g; Organ distribution of F-18 signal, fat ([2]; 60 min post i.v. injection): 0.80 % ID/g; Organ distribution of F-18 signal, fat ([2]; 240 min post i.v. injection): 0.08 % ID/g; Organ distribution of F-18 signal, femur ([2]; 2 min post i.v. injection): 1.53 % ID/g; Organ distribution of F-18 signal, femur ([2]; 5 min post i.v. injection): 1.54 % ID/g; Organ distribution of F-18 signal, femur ([2]; 30 min post i.v. injection): 0.68 % ID/g; Organ distribution of F-18 signal, femur ([2]; 60 min post i.v. injection): 0.38 % ID/g; Organ distribution of F-18 signal, femur ([2]; 240 min post i.v. injection): 0.16 % ID/g; Organ distribution of F-18 signal, heart ([2]; 2 min post i.v. injection): 4.68 % ID/g; Organ distribution of F-18 signal, heart ([2]; 5 min post i.v. injection): 4.36 % ID/g; Organ distribution of F-18 signal, heart ([2]; 30 min post i.v. injection): 1.54 % ID/g; Organ distribution of F-18 signal, heart ([2]; 60 min post i.v. injection): 0.54 % ID/g; Organ distribution of F-18 signal, heart ([2]; 240 min post i.v. injection): 0.13 % ID/g; Organ distribution of F-18 signal, intestine ([2]; 2 min post i.v. injection): 2.14 % ID/g; Organ distribution of F-18 signal, intestine ([2]; 5 min post i.v. injection): 2.66 % ID/g; Organ distribution of F-18 signal, intestine ([2]; 30 min post i.v. injection): 10.01 % ID/g; Organ distribution of F-18 signal, intestine ([2]; 60 min post i.v. injection): 14.79 % ID/g; Organ distribution of F-18 signal, intestine ([2]; 240 min post i.v. injection): 13.00 % ID/g; Organ distribution of F-18 signal, kidney ([2]; 2 min post i.v. injection): 7.68 % ID/g; Organ distribution of F-18 signal, kidney ([2]; 5 min post i.v. injection): 8.07 % ID/g; Organ distribution of F-18 signal, kidney ([2]; 30 min post i.v. injection): 7.83 % ID/g; Organ distribution of F-18 signal, kidney ([2]; 60 min post i.v. injection): 4.37 % ID/g; Organ distribution of F-18 signal, kidney ([2]; 240 min post i.v. injection): 1.12 % ID/g; Organ distribution of F-18 signal, liver ([2]; 2 min post i.v. injection): 7.17 % ID/g; Organ distribution of F-18 signal, liver ([2]; 5 min post i.v. injection): 12.14 % ID/g; Organ distribution of F-18 signal, liver ([2]; 30 min post i.v. injection): 9.41 % ID/g; Organ distribution of F-18 signal, liver ([2]; 60 min post i.v. injection): 4.72 % ID/g; Organ distribution of F-18 signal, liver ([2]; 240 min post i.v. injection): 2.09 % ID/g; Organ distribution of F-18 signal, lung ([2]; 2 min post i.v. injection): 4.14 % ID/g; Organ distribution of F-18 signal, lung ([2]; 5 min post i.v. injection): 3.76 % ID/g; Organ distribution of F-18 signal, lung ([2]; 30 min post i.v. injection): 1.65 % ID/g; Organ distribution of F-18 signal, lung ([2]; 60 min post i.v. injection): 0.69 % ID/g; Organ distribution of F-18 signal, lung ([2]; 240 min post i.v. injection): 0.31 % ID/g; Organ distribution of F-18 signal, muscle ([2]; 2 min post i.v. injection): 2.38 % ID/g; Organ distribution of F-18 signal, muscle ([2]; 5 min post i.v. injection): 2.54 % ID/g; Organ distribution of F-18 signal, muscle ([2]; 30 min post i.v. injection): 1.03 % ID/g; Organ distribution of F-18 signal, muscle ([2]; 60 min post i.v. injection): 0.38 % ID/g; Organ distribution of F-18 signal, muscle ([2]; 240 min post i.v. injection): 0.07 % ID/g; Organ distribution of F-18 signal, pancreas ([2]; 2 min post i.v. injection): 4.44 % ID/g; Organ distribution of F-18 signal, pancreas ([2]; 5 min post i.v. injection): 3.97 % ID/g; Organ distribution of F-18 signal, pancreas ([2]; 30 min post i.v. injection): 2.20 % ID/g; Organ distribution of F-18 signal, pancreas ([2]; 60 min post i.v. injection): 0.77 % ID/g; Organ distribution of F-18 signal, pancreas ([2]; 240 min post i.v. injection): 0.18 % ID/g; Organ distribution of F-18 signal, skin ([2]; 2 min post i.v. injection): 1.22 % ID/g; Organ distribution of F-18 signal, skin ([2]; 5 min post i.v. injection): 1.80 % ID/g; Organ distribution of F-18 signal, skin ([2]; 30 min post i.v. injection): 1.43 % ID/g; Organ distribution of F-18 signal, skin ([2]; 60 min post i.v. injection): 0.66 % ID/g; Organ distribution of F-18 signal, skin ([2]; 240 min post i.v. injection): 0.10 % ID/g; Organ distribution of F-18 signal, spleen ([2]; 2 min post i.v. injection): 1.47 % ID/g; Organ distribution of F-18 signal, spleen ([2]; 5 min post i.v. injection): 2.01 % ID/g; Organ distribution of F-18 signal, spleen ([2]; 30 min post i.v. injection): 0.93 % ID/g; Organ distribution of F-18 signal, spleen ([2]; 60 min post i.v. injection): 0.37 % ID/g; Organ distribution of F-18 signal, spleen ([2]; 240 min post i.v. injection): 0.09 % ID/g; Organ distribution of F-18 signal, stomach ([2]; 2 min post i.v. injection): 3.46 % ID/g; Organ distribution of F-18 signal, stomach ([2]; 5 min post i.v. injection): 3.07 % ID/g; Organ distribution of F-18 signal, stomach ([2]; 30 min post i.v. injection): 3.10 % ID/g; Organ distribution of F-18 signal, stomach ([2]; 60 min post i.v. injection): 1.13 % ID/g; Organ distribution of F-18 signal, stomach ([2]; 240 min post i.v. injection): 0.34 % ID/g; Organ distribution of F-18 signal, tail ([2]; 2 min post i.v. injection): 8.55 % ID/g; Organ distribution of F-18 signal, tail ([2]; 5 min post i.v. injection): 5.41 % ID/g; Organ distribution of F-18 signal, tail ([2]; 30 min post i.v. injection): 3.21 % ID/g; Organ distribution of F-18 signal, tail ([2]; 60 min post i.v. injection): 0.87 % ID/g; Organ distribution of F-18 signal, tail ([2]; 240 min post i.v. injection): 0.39 % ID/g; Organ distribution of F-18 signal, testicle ([2]; 2 min post i.v. injection): 1.36 % ID/g; Organ distribution of F-18 signal, testicle ([2]; 5 min post i.v. injection): 1.70 % ID/g; Organ distribution of F-18 signal, testicle ([2]; 30 min post i.v. injection): 1.13 % ID/g; Organ distribution of F-18 signal, testicle ([2]; 60 min post i.v. injection): 0.65 % ID/g; Organ distribution of F-18 signal, testicle ([2]; 240 min post i.v. injection): 0.15 % ID/g; Organ distribution of F-18 signal, thyroid ([2]; 2 min post i.v. injection): 3.11 % ID/g; Organ distribution of F-18 signal, thyroid ([2]; 5 min post i.v. injection): 2.41 % ID/g; Organ distribution of F-18 signal, thyroid ([2]; 30 min post i.v. injection): 1.08 % ID/g; Organ distribution of F-18 signal, thyroid ([2]; 60 min post i.v. injection): 0.50 % ID/g; Organ distribution of F-18 signal, thyroid ([2]; 240 min post i.v. injection): 0.19 % ID/g
